Assay results from patent US11066482B2, “Specific plasmin inactivation by anticatalytic antibody” (priority 2017, dated 2021).
Values belong to the molecule of their own block, whether it stands above or below them.

What was measured:
[1] = target: plasmin-mediated cleavage of factor V (Homo sapiens, UniProt P00747); assay: Factor V cleavage by plasmin, SDS-PAGE; format: biochemical; conditions: EACA 1 mM or Pi 5 ug, 1 hr RT
Protocol: FIGS. 4A-4D show comparative inhibition of factor V cleavage and human clot fibrinolysis (dissolution) by Pi, EACA and a2AP. […] The relative migration of molecular weight standards is shown (kDa). […] Human plasma was clotted with CaCl2 (10 mM) and thrombin (1 U/ml) in the presence of trace amounts of 1251 fibrinogen for 1 h at 37 deg. C. After washing in 1 ml of TBS pH 7.4, tPA (5 nM) was added in the presence of various amounts of Pi (62.5 to 1000 nM), EACA (0.125 mM to 2 mM) or no inhibitor. After 2.5 h the amount of fibrinolysis was determined by measuring the amount of 125I-fibrin dissolved in the supernatant. Means of duplicate observations are shown. […] Clots were formed as above in the presence of human plasminogen (2 uM) and a2AP (1 uM) or Pi (1 uM) and various amounts of tPA (0-10 nM). Clot dissolution was monitored in duplicate over 2 h in microtiter plate wells at A405 nm. […] Human plasma clots were mixed with various concentrations of Pi IgG, Pi Fab and chimeric Pi Fab (25 nM-400 nM) and plasmin was activated by urokinase. The amount of clot lysis was determined as described in Methods.
Factor V cleavage. Human factor V (2 ug, IHFV, Innovative Research) was mixed with plasmin (0.05 ug) for 1 hr at RT in the presence of EACA (1 mM), Pi (5 ug) or a control monoclonal antibody (digoxin, 5 ug). […] Protein bands were detected by staining with Coomassie blue dye.

[2] = system: plasmin-mediated fibrinolysis of human fibrin clots; assay: Fibrinolysis of 125I-fibrin human plasma clots with tPA, EACA vs Pi; format: biochemical; conditions: tPA 5 nM, 2.5 h
fibrinolytic bleeding = assay: Fibrinolytic bleeding assay in vivo (humanized tail bleeding model); parameters: species or system mice; conditions: EACA 510 micromole/kg intravenously
Protocol: Anesthetized mice were treated in a randomized, blinded fashion with saline (Control), Pi (100 nmole/kg) or EACA (510 micromole/kg) intravenously. Human plasminogen (100 nmole/kg) and plasminogen activator (80,000 IU/kg) were given over 60 min. Tail bleeding was initiated 40 min. after the infusion. Tails were pre-warmed for 5 mins in 3 mL of 37° C. saline and bleeding was monitored as described.36,37 N=5-6, Means±SE are shown. *p<0.05, **p<0.01; ns, not significant. Kruskal Wallis one way ANOVA, Dunn's corrections.
Fibrinolytic bleeding assays in vivo. Anesthetized mice were treated in a randomized, blinded fashion with saline (Control), Pi (100 nmole/kg) or EACA (510 micromole/kg). Human plasminogen (100 nmole/kg) and plasminogen activator (80,000 IU/kg) were given over 60 min. Tail bleeding started 40 min. after the infusion. Tails were pre-warmed for 5 mins in 3 mL of 37° C. saline as described.(27, 28).
Suppression of fibrinolytic bleeding in vivo. The potential utility of the Pi for suppression of fibrinolytic bleeding was examined in vivo in randomized, blinded studies of surgical arterial and venous hemorrhage.

[3] = in vivo; cited from earlier work
Plasmin = Plasmin (Homo sapiens, UniProt P00747); assay: Effect of mouse or chimeric Fab on plasmin activity, S2251; format: biochemical; conditions: plasmin 25 nM, Fab 0-200 nM, S2251 0.5 mM
Plasmin, sequence (P00747 97-580 limits assumed): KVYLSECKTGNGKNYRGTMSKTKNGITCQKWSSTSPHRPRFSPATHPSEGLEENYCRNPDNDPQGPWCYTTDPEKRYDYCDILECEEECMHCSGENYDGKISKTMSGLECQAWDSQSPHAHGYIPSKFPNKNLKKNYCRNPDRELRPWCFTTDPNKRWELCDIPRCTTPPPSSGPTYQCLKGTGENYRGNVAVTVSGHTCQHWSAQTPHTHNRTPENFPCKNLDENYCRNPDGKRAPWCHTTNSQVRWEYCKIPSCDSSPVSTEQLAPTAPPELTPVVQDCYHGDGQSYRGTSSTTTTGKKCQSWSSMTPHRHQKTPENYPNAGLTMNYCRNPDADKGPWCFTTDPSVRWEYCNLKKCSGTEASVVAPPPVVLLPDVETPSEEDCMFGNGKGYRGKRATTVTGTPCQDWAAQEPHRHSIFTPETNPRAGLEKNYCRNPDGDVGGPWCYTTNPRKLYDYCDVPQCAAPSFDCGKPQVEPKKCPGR
Plasmin, sequence (P00747 581-810 limits assumed): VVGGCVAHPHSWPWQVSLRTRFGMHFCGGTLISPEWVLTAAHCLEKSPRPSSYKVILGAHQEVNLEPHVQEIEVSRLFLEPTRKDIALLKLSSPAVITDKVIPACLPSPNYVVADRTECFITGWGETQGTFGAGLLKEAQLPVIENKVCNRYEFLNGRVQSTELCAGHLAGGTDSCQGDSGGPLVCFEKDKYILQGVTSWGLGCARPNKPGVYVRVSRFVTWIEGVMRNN
Protocol: FIGS. 2A-2D show comparative inhibition of plasmin activity by Pi EACA and a2AP. […] The percent residual activity of plasmin as a function of the log concentration of inhibitor is shown. […] Human plasmin (100 nM, Hematologic Technologies, Inc.) was mixed with or without Pi (50 nM) in the presence of the substrate S2251 (0.1 to 4 mM). The initial rate of substrate cleavage (6 min.) was monitored at A405. Data were plotted and analyzed using Michaelis-Menten kinetics by the Graphpad Prism Program. Means (duplicate observations) are shown and are representative of 4 separate experiments. […] The means of duplicate observations are shown. […] Plasmin (25 nM) was mixed with various concentrations (0-200 nM) of mouse Fab or chimeric Fab (cFab) and S2251 (0.5 mM) in TBS buffer pH 7.4. Plasmin activity was measured by the release of paranitroanilide product at A405 over time.
The effects of mouse or chimeric Fab on plasmin activity were examined. Plasmin (25 nM) was mixed with various concentrations (0-200 nM) of mouse Fab or chimeric Fab (cFab) and S2251 (0.5 mM) in TBS buffer pH 7.4. Plasmin activity was measured by the release of paranitroanilide product at A405 over time.

human plasma clots = assay: Clot lysis assay of Pi IgG, Fab and chimeric Fab, urokinase; format: biochemical; conditions: 25 nM-400 nM, 30 min
Protocol: FIGS. 4A-4D show comparative inhibition of factor V cleavage and human clot fibrinolysis (dissolution) by Pi, EACA and a2AP. […] The relative migration of molecular weight standards is shown (kDa). […] Human plasma was clotted with CaCl2 (10 mM) and thrombin (1 U/ml) in the presence of trace amounts of 1251 fibrinogen for 1 h at 37 deg. C. After washing in 1 ml of TBS pH 7.4, tPA (5 nM) was added in the presence of various amounts of Pi (62.5 to 1000 nM), EACA (0.125 mM to 2 mM) or no inhibitor. After 2.5 h the amount of fibrinolysis was determined by measuring the amount of 125I-fibrin dissolved in the supernatant. Means of duplicate observations are shown. […] Clots were formed as above in the presence of human plasminogen (2 uM) and a2AP (1 uM) or Pi (1 uM) and various amounts of tPA (0-10 nM). Clot dissolution was monitored in duplicate over 2 h in microtiter plate wells at A405 nm. […] The amount of clot lysis was determined as described in Methods.
The effects of Pi IgG, Fab or chimeric Fab were also compared in a clot lysis assay in microtiter plates. […] C. was monitored at 405 nm. The percent clot dissolution at 30 min. was determined as the percent change in peak turbidity from baseline=100%×(peak absorbance−30 min. absorbance)/(peak absorbance−baseline absorbance).

plasmin-mediated cleavage of factor V, sequence (P00747 97-580 limits assumed): as the sequence (P00747 97-580 limits assumed) above
plasmin-mediated cleavage of factor V, sequence (P00747 581-810 limits assumed): as the sequence (P00747 581-810 limits assumed) above

- effect on Factor V cleavage by plasmin [1]: slightly diminished Factor V cleavage
Molecule: NCCCCCC(=O)O [EACA, epsilon amino caproic acid, reference compound]
- fold less potent than the Pi in suppressing fibrinolysis [2]: approximately 5,000 fold
- effect on fibrinolysis of human fibrin clots ([2]; Pi 62.5 to 1000 nM, EACA 0.125 mM to 2 mM): diminished fibrinolysis
- effect on bleeding time vs saline (fibrinolytic bleeding): did not reduce bleeding time or blood loss
- effect on blood loss vs saline (fibrinolytic bleeding): did not reduce bleeding time or blood loss

Molecule: NC[C@H]1CC[C@H](C(=O)O)CC1 [Tranexamic acid, tranexamic acid]
- excreted via the urine unchanged [3]: 95%

- inhibition of plasmin activity with tripeptide substrate (Plasmin): potently inhibited plasmin activity
- inhibition of clot lysis by Pi molecular forms (human plasma clots): effectively inhibited clot lysis
B1: mouse Fab: Fab fragment of the Pi lacking the Fc domain (antibody, V domains shown)
VH: EVKLLESGGGLVQPGGSLKLSCAASGFDFSRYWMSWVRQAPGKGLEWIGEINPDSSTINYTPSLKDKFIISRDNAKNSLYLQMSKVRSEDTALYYCASYCGYSYDALDCWGQGTSVTVSS
VL: DIQMTQSPSSLSASLGGKVSITCKASQDINKYISWYQHKPGKGPRLLIHYTSTLQPGIPSRFSGSGSGRDYSFSISNLEPEDIATYYCLQYDNLYTFGGGTKLEIK
